Earlier results in publication PMC3310340 (Bioconjugate Chemistry, 2012).

System: rats
Conditions: administered orally to rats; ref material safety data sheet for KHP

In the case of O=C(O)c1ccccc1C(=O)O [KHP, potassium biphthalate], the LD50 is listed as > 3200 mg/kg.
